# Results taken from patent publication US7741436B2, “Biologically active peptides and their use for repairing injured nerves” (priority 2001, dated 2010).
# Experiments:
# [1] = test system: human embryonic spinal cord neurons; test: Survival and neurite outgrowth of human embryonic spinal cord neurons on injured glial cells of the human spinal cord; format: cell-based; conditions: for survival (numbers) of spinal cord neurons on lesioned glial monolayers / numbers of spinal cord neurons extending long neurites (>100 μm): 72 hrs; for numbers of spinal cord neurons extending long neurites (>100 μm): lesioned glial monolayers
# From the text: The CNS tissues were first placed in cold saline. The spinal cord tissues were identified under a stereomicroscope, and carefully freed of meninges. To obtain monolayer cultures of human spinal cord glial cells, the cells were dissociated by mechanical trituration using a Pasteur-pipette, and placed in Petri dishes (Corning, N.Y., USA) containing 10% fetal calf serum (Hyclone, Logan, UH) in DMEM-F12 (Gibco, U.K.) supplemented with penicillin and streptomycin as described (Liesi et al. 2001).
# Freshly isolated tissue from the human embryonic spinal cord (8-10 weeks of age) was mechanically dissociated and cells were plated at 50,000 on a 22 mm glass coverslip confluent with human embryonic spinal cord glia. The glial monolayers were injured using a 18 G needle prior to plating of the neurons. The cells were cultured in normal adult human serum for 72 hrs. The numbers of spinal cord neurons on the glial monolayers in the presence or absence of KDI (0.0355 μg/ml-1.0 μg/ml) was estimated on TUJ1-labelled cultures. The statistical analysis was performed using one-way-variance analysis (ANOVA), and the Student-Newman-Keuls multiple comparisons test.
# Confluent cultures of the spinal cord glial cells were trypsinized using Trypsin-EDTA, and cells replated at a density of 5×10^4 on a 22 mm glass coverslip. The cells were cultivated until they formed confluent monolayers. At this point, their culture medium was changed into 10% normal adult human serum in DMEM-F12, and glial monolayers were injured using 18 G-needle. After injury, the KDI peptide (Multiple Peptide Systems, La Jolla, Calif., USA) was added into the culture medium after which a suspension of freshly dissociated cells from spinal cord or neocortex was added at 2×10^4 on one coverslip. After 24-48 hrs, the cultures were fixed in 2% paraformaldehyde in PBS, pH 7.4 for 15 min and immunostained for TUJ1 as described previously (Liesi et al., 2001).
# Viability and neurite outgrowth of human CNS-neurons on the spinal cord glial cells were evaluated by counting 10 random fields of cells in 6 different cultures. A total of 265 cells were counted. The numbers of long neurites (>10 cell soma) were estimated similarly. One-way-variance analysis (ANOVA) was used to evaluate the results.
# [2] = test system: embryonal bodies of human CNS; test: Attachment and neurite outgrowth of embryonal bodies on white matter of cryostat sections of adult human spinal cord (myelin influence); format: cell-based; conditions: 5-10 μg/ml
# Experimental: Embryonal bodies containing immature stem cells from spinal cord, or neocortex were obtained by placing the mechanically dissociated CNS-cells on 10 cm Petri dishes (Corning) in Neurobasal medium (Gibco, U.K.) with B27-supplement (Gibco, U.K.), antibiotics and 500 μM L-glutamine.
# Cryostat sections (10 μm) of adult normal human spinal cord were cut in coronal plain on SuperFrost Plus slides (Menzel, Germany). Each slide had three sections. The slides with freshly cut sections were immediately placed in sterile Quadriperm-plates (In Vitro Systems & Services, Germany) and 10 ml of culture medium was added. The culture medium was 1.0% normal adult human serum in DMEM-F12 supplemented with penicillin and streptomycin. Two embryonal bodies were placed on areas of white matter on top of each section, and the cultures were placed in the incubator with 5% CO2/95% air at 98% humidity at +37° C. The KDI peptide (Multiple Peptide Systems, La Jolla, Calif.) was added in the medium at 1-10 μg/ml, and the 10-amino acid precursor (RDIAEIIKDI (SEQ ID NO: 1)) was added at equimolar concentrations. The control cultures received no peptide. After 10 days, the cultures were fixed and immunostained for neurofilament proteins and additional neuronal and glial markers to identify the neurites and cells within the embryonal bodies. Numbers of embryonal bodies attached, and extending neurites directly on the adult white matter tissue were counted on each slide and the results analyzed using one-way-variance-analysis (ANOVA). Numbers of long neurites (>100 μm) extending from embryonal bodies in control cultures and in cultures with 5-10 μg/ml of the KDI peptide in the culture medium were counted and a non-parametric Whitney-Mann test was used to analyze those results.
# [3] = test system: spinal cord injuries of adult male rats; test: Spinal cord injuries of adult male rats: complete lumbar spinal cord transection, mini pump administration; format: in vivo, Sprague-Dawley rats
# Experimental: Complete transections of the lumbar spinal cord under deep pentobarbiturate anesthesia were made to 40 adult male Sprague-Dawley rats. Osmotic mini pumps were implanted subcutaneously to allow continuous flow of the KDI peptide (KDI-group) used at pre-tested concentrations (10-100 μg/ml) or a placebo (placebo-group). Morphine was given to both of the groups to alleviate the postoperative pain. The animals underwent weekly tests of their motor function during a period of three months. The motor score testing was carried out using a standard set of tests of motor evaluation (walking, tow-spread, placing and withdrawal). The mini pumps initially provided the drugs for 30 days, and when feasible, additional experiments were carried out with prolonged (up to 3 months) application. After 3 months, the animals in each group were euthanized and spinal cords were either deep frozen for immunocytochemistry, biochemistry and RNA-work, or fixed in 4% paraformaldehyde for in situ hybridization and histological analysis of recovery. […]
# Preliminary motor scores were obtained from animals treated with KDI, and from control animals. […] The scores for each animal were calculated by adding up the walking scores obtained within a 12 week follow-up-time after the operation. […] The scores of six animals in placebo-group and six-animals, in the KDI-group were analysed and statistically compared. […]
substance,measurement,setting,value
KDI,survival (numbers) of spinal cord neurons on lesioned glial monolayers,[1]; 0.0355 μg/ml,significantly (p<0.001) enhanced survival
same,neurite extension of TUJ1-immunoreactive spinal cord neuron on injured glial monolayers,"[1]; 0.1 μg/ml in culture medium, 48 hrs",extends a long neurite
same,survival (numbers) of spinal cord neurons on lesioned glial monolayers,[1]; 0.1 μg/ml,significantly (p<0.001) enhanced survival
same,numbers of spinal cord neurons extending long neurites (>100 μm),"[1]; 0.1 μg/ml, p<0.001",significantly increased the numbers of long neurites
same,survival (numbers) of spinal cord neurons on lesioned glial monolayers,[1]; 0.5 μg/ml,did not promote survival of the spinal cord neurons any better than the lesion by itself
same,survival (numbers) of spinal cord neurons on lesioned glial monolayers,[1]; 1.0 μg/ml,did not promote survival of the spinal cord neurons any better than the lesion by itself
same,numbers of spinal cord neurons extending long neurites (>100 μm),"[1]; 1.0 μg/ml, vs lesion-control",significantly increased the numbers of long neurites
same,extension of neurofilament-positive neurites from spinal cord embryonal bodies on white matter,[2]; 10 days in vitro,long neurofilament-positive nerve fibres extend out of the embryonal bodies
same,numbers of long neurites extending from embryonal bodies onto white matter,"[2]; 10 days in vitro, p<0.0001 vs control",a large number of long neurites extended
same,numbers of embryonal bodies attached and sending out neurites on white matter,"[2]; 10 days, vs control (p<0.01) and vs P1543 (p<0.01)",significantly higher
same,connective tissue scar at the dorsal pole of the spinal cord vs placebo,"[3]; adult rats three months after injury, stereomicroscopic images",considerably smaller
same,mean motor score (sum of walking scores),"[3]; rats with total spinal cord transection, 12 week follow-up, six animals, ±SEM, placebo 11±2.4, normal animal 120, P 0.0022, preliminary",78±5.8
